Target: human Gal-3 (hGal-3) (Homo sapiens (Human), UniProt P17931)
Assay: competitive binding assay: binding of biotinylated hGal-3 to microplate-adsorbed asialofetuin (ASF), spectrophotometric
Settings: Activity on hGal-3; mean values of several measurements
Method in brief: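 Biotinylated hGal-3 (300-1000 ng/mL) bound to ASF-coated wells with serially diluted compound, 3 h at 4° C. After washing, bound protein was detected with streptavidin-peroxidase (80 ng/mL, 1 h, 4° C) and ABTS substrate; IC50 values are means of several measurements.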

Sequence of human Gal-3 (hGal-3) (P17931 whole entry): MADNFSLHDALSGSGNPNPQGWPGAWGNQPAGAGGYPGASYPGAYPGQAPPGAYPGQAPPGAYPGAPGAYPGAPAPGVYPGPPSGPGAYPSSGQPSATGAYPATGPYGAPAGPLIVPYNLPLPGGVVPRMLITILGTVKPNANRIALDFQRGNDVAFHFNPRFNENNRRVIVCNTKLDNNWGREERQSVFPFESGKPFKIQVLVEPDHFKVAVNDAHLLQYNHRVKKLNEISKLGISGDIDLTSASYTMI

Compound	IC50
CO[C@@H]1[C@@H](n2cc(-c3cccc(F)c3)nn2)[C@@H](O)[C@@H](CO)O[C@H]1C(=O)N(c1cc(Cl)cc(C#N)c1)[C@H]1CCC[C@@H]1O [Example 1.15.4, (2R,3R,4S,5R,6R)-N-(3-chloro-5-cyanophenyl)-4-(4-(3-fluorophenyl)-1H-1,2,3-triazol-1-yl)-5-hydroxy-N-((1S,2S)-2-hydroxycyclopentyl)-6-(hydroxymethyl)-3-methoxytetrahydro-2H-pyran-2-carboxamide]	54 nM
CO[C@@H]1[C@@H](n2cc(-c3cccc(F)c3)nn2)[C@@H](O)[C@@H](CO)O[C@H]1C(=O)N(c1cc(Cl)cc(C#N)c1)[C@@H]1CCC[C@H]1O [Example 1.15.4R, (2R,3R,4S,5R,6R)-N-(3-chloro-5-cyanophenyl)-4-(4-(3-fluorophenyl)-1H-1,2,3-triazol-1-yl)-5-hydroxy-N-((1R,2R)-2-hydroxycyclopentyl)-6-(hydroxymethyl)-3-methoxytetrahydro-2H-pyran-2-carboxamide]	838 nM
CO[C@@H]1[C@@H](n2cc(-c3cccc(F)c3)nn2)[C@@H](O)[C@@H](CO)O[C@H]1C(=O)N(c1cc(Br)cc(C#N)c1)[C@H]1CCC[C@@H]1O [Example 1.15.5, (2R,3R,4S,5R,6R)-N-(3-bromo-5-cyanophenyl)-4-(4-(3-fluorophenyl)-1H-1,2,3-triazol-1-yl)-5-hydroxy-N-((1S,2S)-2-hydroxycyclopentyl)-6-(hydroxymethyl)-3-methoxytetrahydro-2H-pyran-2-carboxamide]	66 nM
CO[C@@H]1[C@@H](n2cc(-c3cccc(F)c3)nn2)[C@@H](O)[C@@H](CO)O[C@H]1C(=O)N(c1cc(Br)cc(C#N)c1)[C@@H]1CCC[C@H]1O [Example 1.15.5R, (2R,3R,4S,5R,6R)-N-(3-bromo-5-cyanophenyl)-4-(4-(3-fluorophenyl)-1H-1,2,3-triazol-1-yl)-5-hydroxy-N-((1R,2R)-2-hydroxycyclopentyl)-6-(hydroxymethyl)-3-methoxytetrahydro-2H-pyran-2-carboxamide]	612 nM
CO[C@@H]1[C@@H](n2cc(-c3ccc(C#N)c(F)c3)nn2)[C@@H](O)[C@@H](CO)O[C@H]1C(=O)N(c1cc(Cl)cc(C#N)c1)[C@H]1CCC[C@@H]1O [Example 1.16.4, (2R,3R,4S,5R,6R)-N-(3-chloro-5-cyanophenyl)-4-(4-(4-cyano-3-fluorophenyl)-1H-1,2,3-triazol-1-yl)-5-hydroxy-N-((1S,2S)-2-hydroxycyclopentyl)-6-(hydroxymethyl)-3-methoxytetrahydro-2H-pyran-2-carboxamide]	102 nM
CO[C@@H]1[C@@H](n2cc(-c3cc(F)c(Cl)c(Cl)c3)nn2)[C@@H](O)[C@@H](CO)O[C@H]1C(=O)N(c1cc(Cl)cc(C#N)c1)[C@H]1CCC[C@@H]1O [Example 1.17.4, (2R,3R,4S,5R,6R)-N-(3-chloro-5-cyanophenyl)-4-(4-(3,4-dichloro-5-fluorophenyl)-1H-1,2,3-triazol-1-yl)-5-hydroxy-N-((1S,2S)-2-hydroxycyclopentyl)-6-(hydroxymethyl)-3-methoxytetrahydro-2H-pyran-2-carboxamide]	29.7 nM
CO[C@@H]1[C@@H](n2cc(-c3cc(F)c(Cl)c(Cl)c3)nn2)[C@@H](O)[C@@H](CO)O[C@H]1C(=O)N(c1cc(Cl)cc(C#N)c1)[C@@H]1CCC[C@H]1O [Example 1.17.4R, (2R,3R,4S,5R,6R)-N-(3-chloro-5-cyanophenyl)-4-(4-(3,4-dichloro-5-fluorophenyl)-1H-1,2,3-triazol-1-yl)-5-hydroxy-N-((1R,2R)-2-hydroxycyclopentyl)-6-(hydroxymethyl)-3-methoxytetrahydro-2H-pyran-2-carboxamide]	238 nM

The remaining lines, values ahead:

IC50	Compound
978 nM	CO[C@@H]1[C@@H](n2cc(-c3ccc(C#N)c(F)c3)nn2)[C@@H](O)[C@@H](CO)O[C@H]1C(=O)N(c1cc(Cl)cc(C#N)c1)[C@@H]1CCC[C@H]1O [Example 1.16.4R, (2R,3R,4S,5R,6R)-N-(3-chloro-5-cyanophenyl)-4-(4-(4-cyano-3-fluorophenyl)-1H-1,2,3-triazol-1-yl)-5-hydroxy-N-((1R,2R)-2-hydroxycyclopentyl)-6-(hydroxymethyl)-3-methoxytetrahydro-2H-pyran-2-carboxamide]
62 nM	CO[C@@H]1[C@@H](n2cc(-c3ccc(C#N)c(F)c3)nn2)[C@@H](O)[C@@H](CO)O[C@H]1C(=O)N(c1cc(Br)cc(C#N)c1)[C@H]1CCC[C@@H]1O [Example 1.16.5, (2R,3R,4S,5R,6R)-N-(3-bromo-5-cyanophenyl)-4-(4-(4-cyano-3-fluorophenyl)-1H-1,2,3-triazol-1-yl)-5-hydroxy-N-((1S,2S)-2-hydroxycyclopentyl)-6-(hydroxymethyl)-3-methoxytetrahydro-2H-pyran-2-carboxamide]
729 nM	CO[C@@H]1[C@@H](n2cc(-c3ccc(C#N)c(F)c3)nn2)[C@@H](O)[C@@H](CO)O[C@H]1C(=O)N(c1cc(Br)cc(C#N)c1)[C@@H]1CCC[C@H]1O [Example 1.16.5R, (2R,3R,4S,5R,6R)-N-(3-bromo-5-cyanophenyl)-4-(4-(4-cyano-3-fluorophenyl)-1H-1,2,3-triazol-1-yl)-5-hydroxy-N-((1R,2R)-2-hydroxycyclopentyl)-6-(hydroxymethyl)-3-methoxytetrahydro-2H-pyran-2-carboxamide]
163 nM	CO[C@@H]1[C@@H](n2cc(-c3ccc(C#N)c(F)c3)nn2)[C@@H](O)[C@@H](CO)O[C@H]1C(=O)N(c1cc(C)cc(C#N)c1)[C@H]1CCC[C@@H]1O [Example 1.16.8, (2R,3R,4S,5R,6R)-4-(4-(4-cyano-3-fluorophenyl)-1H-1,2,3-triazol-1-yl)-N-(3-cyano-5-methylphenyl)-5-hydroxy-N-((1S,2S)-2-hydroxycyclopentyl)-6-(hydroxymethyl)-3-methoxytetrahydro-2H-pyran-2-carboxamide]
1260 nM	CO[C@@H]1[C@@H](n2cc(-c3ccc(C#N)c(F)c3)nn2)[C@@H](O)[C@@H](CO)O[C@H]1C(=O)N(c1cc(C)cc(C#N)c1)[C@@H]1CCC[C@H]1O [Example 1.16.8R, (2R,3R,4S,5R,6R)-4-(4-(4-cyano-3-fluorophenyl)-1H-1,2,3-triazol-1-yl)-N-(3-cyano-5-methylphenyl)-5-hydroxy-N-((1R,2R)-2-hydroxycyclopentyl)-6-(hydroxymethyl)-3-methoxytetrahydro-2H-pyran-2-carboxamide]
256 nM	COc1cc(C#N)cc(N(C(=O)[C@@H]2O[C@H](CO)[C@H](O)[C@H](n3cc(-c4ccc(C#N)c(F)c4)nn3)[C@H]2OC)[C@H]2CCC[C@@H]2O)c1 [Example 1.16.9, (2R,3R,4S,5R,6R)-4-(4-(4-cyano-3-fluorophenyl)-1H-1,2,3-triazol-1-yl)-N-(3-cyano-5-methoxyphenyl)-5-hydroxy-N-((1S,2S)-2-hydroxycyclopentyl)-6-(hydroxymethyl)-3-methoxytetrahydro-2H-pyran-2-carboxamide]
1460 nM	COc1cc(C#N)cc(N(C(=O)[C@@H]2O[C@H](CO)[C@H](O)[C@H](n3cc(-c4ccc(C#N)c(F)c4)nn3)[C@H]2OC)[C@@H]2CCC[C@H]2O)c1 [Example 1.16.9R, (2R,3R,4S,5R,6R)-4-(4-(4-cyano-3-fluorophenyl)-1H-1,2,3-triazol-1-yl)-N-(3-cyano-5-methoxyphenyl)-5-hydroxy-N-((1R,2R)-2-hydroxycyclopentyl)-6-(hydroxymethyl)-3-methoxytetrahydro-2H-pyran-2-carboxamide]

From US20230348442A1, “GALECTIN-3 INHIBITING 2-HYDROXYCYCLOALKANE-1-CARBAMOYL DERIVATIVES” (Idorsia Pharmaceuticals Ltd, priority 2020, published 2023)
